Source: paper PMC3842960, “Natural Stilbenoids Isolated from Grapevine Exhibiting Inhibitory Effects against HIV-1 Integrase and Eukaryote MOS1 Transposase In Vitro Activities” (PLoS ONE, 2013)

Tests used:
MOS1 = biological target: T1, MOS1 (Drosophila mauritiana, UniProt Q7JQ07); assay: MOS1 in vitro activities, overall statements of the discussion; assay type: biochemical, D. mauritiana; settings: for activity on MOS1: in vitro assays of MOS1 activities, discussion
T1 construct: involving the full-length Mos1 transposase (MOS1) was recently solved; made in house
Experimental: (§1) In vitro transposition reactions were performed using pBC-3T3 as both the donor DNA and the target, as previously described. Briefly, the basic transposition reaction mixtures contained 10 mM Tris-HCl (pH 9), 50 mM NaCl, 20 mM MgCl2, 0.5 mM EDTA, 5% glycerol, 5 ng/ml BSA, 600 ng pBC-3T3, and 80 nM purified MBP-MOS1 (added last) in a volume of 20 µl. Inhibitors (25 or 10 µM, as specified) or DMSO (2%) were added to the reaction mixtures before the transposase. The reactions were allowed to proceed for 30 min at 30°C. After phenol-chloroform extraction and ethanol precipitation, 10% of the reaction mixture was transformed in electro-competent JM109 E. coli (2 mm cuvette, 1.5 kV in a MicroPulser™BioRad). Appropriate dilutions of each reaction mixture were plated on LB-tetracycline (12.5 µg/ml) agar and LB-chloramphenicol (80 µg/ml) agar to score the transposition rate. The transposition rate was the number of Tet^R colonies divided by the number of Chloram^R plus Tet^R colonies. Each condition was done at least three times in independent experiments.
Basic excision reaction mixtures contained 10 mM Tris-HCl (pH 9), 50 mM NaCl, 20 mM MgCl2, 0.5 mM EDTA, 0.5 mM DTT, 100 ng BSA, 600 ng of super-coiled pBC-3T3, and 80 nM MBP-MOS1 (added last) in a volume of 20 µl. Molecules (25 or 10 µM, as specified) or DMSO (2%) were added to the reaction mixtures before the transposase. The reactions were allowed to proceed at 30°C for 30 min before 2 µl of stop solution (loading buffer) were added. The reaction mixtures were then incubated at 65°C for 10 min. Each reaction was analysed by overnight electrophoresis at 2.7 V/cm on a TAE-buffered 1% agarose gel with ethidium bromide (0.3 mg/ml). After electrophoresis, the gel was photographed on a transilluminator. ImageGauge 4.22 software (Fujifilm) was used to quantify the bands. Each condition was tested at least twice.
These assays were performed using pre-cleaved 3′ITRs (PC-ITR), i.e. ITRs in the configuration expected after excision. Double-strand ITRs were obtained by annealing equimolar amounts of 70-NTS-PN (5′[…]3′) and 70-TS-PC (5′[…]3′) single-strand oligonucleotides. Prior to annealing, the transferred strand (70-TS-PC) was 5′-end labelled using T4 polynucleotide kinase (Promega) and γ-^32P-ATP following the manufacturer's instructions. Oligonucleotides were provided by Eurofins MWG Biotech (Germany) or Eurogentec (Belgium). Reaction mixtures containing 10 mM Tris-HCl (pH 9), 50 mM NaCl, 1 mM DTT, 5% glycerol, 100 ng BSA, 100 nM of labelled PC-ITR and 100 nM MBP-MOS1 in a final volume of 20 µl were incubated at 30°C for 30 min. The pBC plasmid (which contained the cat gene, a hot-spot for Mos1 insertion) was then added to 30 ng/µL along with 5 mM MgCl2. Molecules (25 or 10 µM, as specified) or DMSO (2%) were added to the reaction mixtures along with the target DNA to estimate their effect on integration. Reactions were carried out for 3 hours at 30°C. 0.1 mg/ml proteinase K and 0.1% SDS were added to stop the reaction. DNA products were purified by phenol-chloroform extraction and ethanol precipitated using standard techniques. DNA products were resuspended in DNA loading buffer, then separated onto a 1% agarose gel in 1X TAE (Tris Acetate EDTA) buffer. The gel was dried onto a nitrocellulose membrane (Hybond N+, GE Healthcare), scanned using a Storm, and analysed with ImageQuant software. Signals were quantified using ImageQuant software. Efficiency of integration was calculated as the intensity of the integration signal divided by the intensity of free target signal plus integration signal. Each condition was tested at least twice.
All molecules were also tested in in vitro assays reproducing integration and excision reactions catalysed by MOS1. […] In contrast, E-resveratrol and E-ε-viniferin glucoside, which act more specifically on HIV-1 3′processing reaction, and E-piceid and E-pterostilbene, which is more efficient on the integration reaction, were not active on MOS1.

Mos1 transposase (MOS1) = biological target: T2, Mos1 transposase (MOS1) (Drosophila mauritiana, UniProt Q7JQ07); assay: MOS1 in vitro transposition assay (genetic hop experiment); assay type: biochemical, D. mauritiana
T2 construct: involving the full-length Mos1 transposase (MOS1) was recently solved; made in house
Experimental: The wild type Mos1 transposase (MOS1: 345 amino acids) was produced and purified as a fusion protein linked to the maltose-binding protein by using the pMal-c2 system (New England Biolabs) and following the manufacturer's instructions.
as §1
To identify the natural stilbenes active on MOS1, the 17 molecules were tested using an in vitro genetic “hop” experiment, which is the most sensitive test available as yet. Purified MOS1 was incubated with the pBC-3T3 plasmid, which was used both as the transposon donor and the target plasmid. This plasmid contains the pBR322 tetracycline resistance gene (without promoter) framed by two Mos1 ITRs. This reconstitutes a pseudo-Mos1 element named 3T3. We took advantage of the fact that the cat gene (present in the pBC backbone) is a hotspot for Mos1 integration. […] Transposition events were recovered by bacterial transformation with selection for tetracycline resistance, as a gain-of-function landmark for transposition. […] Controls correspond to assays performed without molecule but with DMSO, which is routinely used as the solvent. […] To confirm the efficiency of the six molecules, they were similarly assayed at 10 µM ( figure 6B ). Since they appeared to be still active at 10 µM, they were further characterized in order to identify the targeted step of the transposition cycle.

T1 sequence (Q7JQ07 whole entry): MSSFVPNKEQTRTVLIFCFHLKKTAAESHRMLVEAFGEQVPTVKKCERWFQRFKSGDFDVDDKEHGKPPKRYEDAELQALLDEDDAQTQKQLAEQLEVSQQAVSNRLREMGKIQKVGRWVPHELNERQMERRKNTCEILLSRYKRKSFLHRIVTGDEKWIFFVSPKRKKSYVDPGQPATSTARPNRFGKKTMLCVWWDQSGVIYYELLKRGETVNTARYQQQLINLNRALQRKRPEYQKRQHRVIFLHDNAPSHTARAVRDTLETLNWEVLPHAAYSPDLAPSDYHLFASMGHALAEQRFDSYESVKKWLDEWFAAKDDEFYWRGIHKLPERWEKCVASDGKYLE
T2 sequence (Q7JQ07 whole entry): as above

Row | SMILES | activity on MOS1 (MOS1) | IC50 (MOS1; summary of the discussion) [µM] | activity against MOS1 in transposition assay (Mos1 transposase (MOS1); 10 µM) | activity against MOS1 in transposition assay (Mos1 transposase (MOS1); 25 µM)
1 | Oc1ccc([C@@H]2c3c(O)cc(O)cc3[C@H]3c4c(cc(O)cc4C2C2c4cc(O)cc5c4[C@H](c4cc(O)cc(O)c4[C@H]2c2ccc(O)cc2)[C@@H](c2ccc(O)cc2)O5)O[C@@H]3c2ccc(O)cc2)cc1 (stereo partly shown) [hopeaphenol] | selectively active on MOS1 | 6 to 8 | still active | active against MOS1
2 | Oc1ccc([C@@H]2c3c(O)cc(O)cc3[C@H]3[C@H](c4ccc(O)cc4)c4c(O)cc(O)cc4[C@@H]23)cc1 [pallidol] | also active against MOS1 activities | – | still active | active against MOS1
